The values below come from patent publication US6649394B1, “Topoisomerase IV, corresponding nucleotide sequences and uses thereof” (priority 1997, dated 2003).

The target in assay [1] is T1, wild-type GrlAB protein (DNA topoisomerase IV) of S. aureus (Staphylococcus aureus, UniProt P0C1S7+P0C1U9).
T1 construct: made in house; host or cells: E. coli XL1-Blue (pXL2340 for GrlA, pXL2320 for GrlB; pRSETB vector, T7 promoter)
In words: Decatenation of kinetoplast DNA by purified wild-type GrlAB protein. It is filed as biochemical. The protocol: (§1) The ATP-dependent activity of decatenation of intertwined circular DNA molecules (catenanes) can be detected by carrying out the procedure, for example, in the following manner: a mixture of an extract of the E. coli strain XL1-blue pXL2320 (2.5 μg of proteins) and of an extract of the E. coli strain XL1-blue pXL2340 (2.5 μg of proteins) is incubated for 1 h at 37° C. in 40 μl of 50 mM Tris/HCl buffer pH 7.7 containing 1 mM ATP, 6 mM MgCl2, 200 mM glutamate, 10 mM DTT, 10 mM NaCl, 50 μg/ml of bovine serum albumin and 800 ng of kinetoplast DNA [consisting of a network of intertwined DNA molecules (catenanes) obtained from Crithidia fasciculata; TopoGene]. The reaction is stopped by adding 7 μl of a 250 mM EDTA solution (incubation 5 min at 37° C.), 5 μl of a 5% SDS and 2.5 mg/ml proteinase K mixture (incubation 30 min at 37° C.). The mixture is then analysed by electrophoresis on a 1% agarose gel in a 0.1 M Tris/borate buffer pH 8.3 containing 2 mM EDTA at 6 V/cm for 2 h 30 min. After staining the DNA with ethidium bromide (1 μg/ml), the DNA is quantified by scanning the negatives of photographs of the gels (Polaroid type 665 film) with the aid of a Bioimage 50S apparatus (Millipore). […] This activity is detected by the appearance of a DNA band with a size of about 2.5 kb and by the disappearance of the band of catenated DNA of very large size which penetrates very little into the gel during the electrophoretic run (FIG. 5).
(§2) To carry out the experiments described in the examples which follow, the incubations are carried out with the purified wild-type GrlAB proteins as described in Example 7, and with the mutant protein GrlA(Ser-80→Tyr)B as described in Example 8. The two wild-type and mutant GrlAB proteins are reconstituted by mixing equimolar quantities of their two GrlA and GrlB subunits.

Assay [2] addresses T2, mutant protein GrlA(Ser-80→Tyr)B (DNA topoisomerase IV) of S. aureus (Staphylococcus aureus, UniProt P0C1S7+P0C1U9, F80Y).
T2 construct: made in house; host or cells: E. coli XL1-Blue (pXL2742 for GrlA Ser-80→Tyr, pXL2320 for GrlB)
Description: biochemical. The protocol: as §1
(§3) The ATP-dependent activities of supercoiled DNA relaxation, on the one hand, and of decatenation of intertwined circular DNA molecules, on the other hand, are detected in this extract as described in Example 7, by incubating, in the same reaction mixture, an acellular extract of the E. coli strain XL1-Blue pXL2742 containing the protein GrlA(Ser-80→Tyr) and an extract of the E. coli strain XL1-Blue pXL2320 containing the GrlB protein.
as §2

The subject of assay [3] is mutant protein GrlA(Ser-80→Tyr)B (DNA topoisomerase IV) of S. aureus. In words: biochemical. Also noted: species or system Staphylococcus aureus. Particulars: GrlA(Ser-80→Tyr)B versus wild-type GrlAB. The protocol: as §1, §3, §2

Usually IC50 stands for the midpoint of a concentration-inhibition curve. For `CC1COc2c(N3CCN(C)CC3)c(F)cc3c(=O)c(C(=O)O)cn1c23` (centres unmarked) [Ofloxacin], the concentration for half-maximal inhibition (IC50) in assay [1] was 27.7 µM; in assay [2], 692 µM.

Consider `O=C(O)c1cn(C2CC2)c2cc(N3CCNCC3)c(F)cc2c1=O` [ciprofloxacin], for which, in assay [1] (purified wild-type GrlAB enzyme), the “concentration above which the activity of decatenation of kinetoplast DNA is completely inhibited” value was above 10 µg/mL.

Regarding `CO[C@@H]1[C@@H](OC(N)=O)[C@@H](O)[C@H](Oc2ccc3c(O)c(NC(=O)c4ccc(O)c(CC=C(C)C)c4)c(=O)oc3c2C)OC1(C)C` [novobiocin], the IC50 in assay [1] and in assay [2] was around 49 µM each time.

With `C[C@@H]1CN(c2c(F)c(N)c3c(=O)c(C(=O)O)cn(C4CC4)c3c2F)C[C@H](C)N1` [sparfloxacin], the IC50 in assay [1] is 15.3 µM; in assay [2] it was 1270 µM. Besides, the “concentration for 50% inhibition with mutant enzyme relative to wild-type enzyme” value in assay [3] stood at 80 times.
